Results reported in US20250213700A1, “COMPOUNDS, COMPOSITIONS, AND METHODS FOR CELL-SPECIFIC PHARMACOLOGY” (Duke University, priority 2022, published 2025).

Tests used:
[1] = system: AMPAR; test: positive allosteric modulation of the AMPAR by CMPDA reagents; assay type: cell-based
Description: To complete the bidirectional ionotropic toolkit, allosteric modulators of the AMPAR were explored. For many pharmaceuticals of this class, including cyclothiazide, two drug molecules are known to bind in close proximity, one on each side of the interface between adjacent ligand-binding domains. Thus, newer pharmaceuticals of this class were focused on, which can span the two binding sites simultaneously, reasoning that it would be easier to accommodate a single tether into the binding interface. In particular, CMPDA (phenyl-1,4-bisalkylsulfonamide) was focused on, owing to its structural simplicity and availability of an experimental atomic structure. […] A synthetic scheme to resynthesize CMPDA while installing a short PEG spacer domain at a point of attachment was devised to allow tether access from the allosteric binding site to free solution. […] Altering the electrostatic properties of the spacer domain was explored. In silico docking and experimental iteration to redesign the electronegative spacer (CCOCCOCC) into a polar neutral spacer (CBNCCCNC) was used, yielding CMPDA.2alkyne, which was converted into the full-length CMPDA.2DART.2.

[2] = system: AMPAR; test: whole-mount retina, AMPAR-mediated evoked EPSC in retinal ganglion cells; assay type: cell-based, mouse; conditions: 300 nM, 15 min
Protocol: (FIG. 6A) Viral strategy (top panel). […] Experimental overview (second panel from the top to bottom panel). Top: whole retina; synaptic current is evoked (stim) and recorded (voltage-clamp of dTomato+ RGC), with ionic and pharmaceutical conditions chosen to isolate the AMPAR or GABAAR. A 10 min baseline is followed by 15 min application of 300 nM Rx^DART.2+30 nM Alexa^647.1DART.2. […] (FIG. 6B) CMPDA.2^DART.2 (left). Electropositive spacer (PDB 3RNN). […] AMPAR structural model (middle) (composite of PDB 5WEO, 3RNN, and 1FTL). Cylinder depicts cell membrane. […] YM90K.1^DART.2 (right). Structural model (PDB 1FTL). […] (FIG. 6C) diazepam.1^DART.2 (left). Structural model (PDB 6HUP). […] GABAAR (middle) structural model (composite of PDB 6HUP and 6HUK). […] Structural model (PDB 6HUK).
Preparation of Retina: Mice were intravitreal injected AAV10 HaloTag™-dTomato to eyes. After 8-12 weeks, the mice killed by cervical dislocation. Both eyes were removed and dissected under a stereo-microscope. Retinas were isolated from the eyecups and placed in oxygenated (95% O2/5% CO2) cold-Ames medium (Sigma-Aldrich), supplemented with 21 mM NaHCO3. After the vitreous body was removed, a retina was cut into 3 pieces, leaving each retina piece attached to a filter paper with 2 mm hole by retina ganglion-cell-side-down. The pieces of retina were stored in bubbled Ames solution at room temperature, then transferred to recording chamber with retina ganglion-cell-side-up for recording.
Whole-cell patch-clamp recording: The brain slices or retinas were perfused with bubbled aCSF at 29-30° C. with a 2 ml/min flow rate. Recordings were made by whole cell patch recording techniques using a Multiclamp 700B amplifier (Molecular Devices, Axon Instruments Inc., Union City, CA). The signals were filtered at 10 KHz and acquired using Digitate 1440A and pClamp 10.7 (Molecular Devices). The recording pipettes (4 MΩ-6 MΩ) were filled with internal solutions. For GABAA receptor-mediated evoked inhibitory postsynaptic currents ([…]) recording, the pipettes filled with Cesium Chloride-based internal solution (in mM) 135 CsCl, 2 MgCl2, 0.5 EGTA, 10 HEPES, 4 Mg-ATP, 0.5 Na-GTP, 10 Na2-phosphocreatine, and QX314 (lidocaine N-ethyl bromide), pH adjusted to 7.3 with CsOH (290 mosm). For AMPA-receptor mediated evoked excitatory postsynaptic currents (eEPSCs) recording, the pipette solution contained (in mM) 130 CsMeS, 1 MgCl2, 0.5 EGTA, 10 HEPES, 4 Mg-ATP, 0.5 Na-GTP, 10 Na2-phosphocreatine, and 4 QX314, pH adjusted to 7.3 with CsOH (290 mosm). For experiment of brain slices and retinas, the eIPSCs or eEPSCs were elicited by electrical stimuli at 0.067 Hz in 0.3-ms duration and 150-300-ρA (60-70% maximum responses) stimulation intensity at a holding potential of −70 mV. The stimulating electrode was placed within 60-100 μm from the recording neuron under voltage-clamp mode. GABA-receptor mediated eIPSCs were isolated in the presence of DNQX ([…] AMPAR antagonist) and AP-V ([…] antagonist) in the bath solution. For AMPA-receptor mediated eEPSCs, added picrotoxin ([…], GABAAR antagonist) and AP-V ([…]) to the bath solution.

[3] = biodistribution to cortex after lateral ventricle infusion (wide-field fluorescence through cranial window); assay type: in vivo, mouse; conditions: -HTP mice, high dose into lateral ventricle
Description: To maintain control of the ambient drug concentration in vivo, thus far a cannula was implanted in close proximity to the desired brain target. (FIG. 5) However, optical and electrical brain interfaces often occupy this precious real estate. For example, cranial window technologies, in which a portion of the skull is replaced with a glass window, have become instrumental in studying the neocortex. Application of drugs through a glass window remains an unsolved problem, as access ports will generally close due to scarring, and temporary removal of the window can compromise the preparation. Thus, it was asked whether DART.2 could enable dosing from a distance via the cerebrospinal fluid (CSF). Delivery via the cisterna magna was first explored, given reports that dextran tracers delivered at this site achieve rapid biodistribution throughout the neocortex parenchyma. Although there was some preliminary success with this approach, it was found difficult to establish mechanically stable cannulation of the cisterna magna, owing to its position below the base of the skull and to the mobility of the neck muscles. […] Following surgical recovery, a high dose of Alexa647.1DART.2 was fused into the LV (dose, volume) and monitored wide-field fluorescence intensity through the cranial window. Fluorescence intensity peaked 2 hr later, and largely cleared by 24 hours (i2055,i2056). […]

[4] = system: +HTP somatostatin interneurons and -HTP neurons of V1 visual cortex; test: 2P calcium imaging of V1 visual responses after contralateral ventricle infusion, SOM-Cre mice; assay type: in vivo, mouse; conditions: infused with YM90K.1DART.2 into contralateral ventricle, widefield fluorescence
Protocol: Top left: Mice expressing pan-neuronal GCaMP8s with SOM-specific ^+HTP. Window over V1. DART delivered via the contralateral ventricle. Bottom left: In-vivo and ex-vivo expression and dye capture. Right: Mice presented oriented visual gratings, 2P Ca^2+ imaging obtained before and 5-6 hr after infusion of 0.3 nmole Alexa647.1^DART.2+3 nmole YM90K.1^DART.2 (2 μL volume) into the contralateral ventricle.
Next, it was examined whether this strategy could deliver a pharmacologically active DART to genetically defined cells. A surgery was performed in which AAV DIO +HTPGPI was injected into the V1 visual cortex of SOM-Cre mice for cell-specific expression in somatostatin interneurons, along with a co-injected AAV-GCaMP8s virus for pan-neuronal neural activity monitoring. A cannula was implanted in the contralateral ventricle, and glass window over V1. Following surgical recovery, a mixture of YM90K.1DART.2+Alexa647.1DART.2 was infused. […] To test for pharmacological effects, 2P calcium imaging of +HTP and −HTP was performed while mice were presented with oriented gratings. A reduction in +HTP visual response was apparent 4 hours post DART infusion. This reduction persisted even after 24 hours post infusion.

[5] = molecular target: T1, HTP on retinal ganglion cells (Rhodococcus rhodochrous, UniProt P0A3G2, A155T/A167V/A172T/A224E/C128F/C176G/D78G/E160K/E257K/H272N/K175M/K195N/L47V/L88M/N227D/S58T/T264A/Y273L/Y87F); test: tracer dye capture on retinal ganglion cells; assay type: cell-based, mouse; conditions: 30 nM, 15 min, after washout
T1 construct: SSnlg signal peptide (residues 1-49 of mouse neuroligin-1) (N); Thy1 GPI anchor signal (C); expressed in transfected cells; host or cells: mouse neurons transduced in vivo with AAV-DIO-+HTPGPI (D1-Cre dorsal striatum; PV::cre retinal ganglion cells)
T1 sequence (P0A3G2 other isoform, or with tags, fused parts or gaps with the stated changes): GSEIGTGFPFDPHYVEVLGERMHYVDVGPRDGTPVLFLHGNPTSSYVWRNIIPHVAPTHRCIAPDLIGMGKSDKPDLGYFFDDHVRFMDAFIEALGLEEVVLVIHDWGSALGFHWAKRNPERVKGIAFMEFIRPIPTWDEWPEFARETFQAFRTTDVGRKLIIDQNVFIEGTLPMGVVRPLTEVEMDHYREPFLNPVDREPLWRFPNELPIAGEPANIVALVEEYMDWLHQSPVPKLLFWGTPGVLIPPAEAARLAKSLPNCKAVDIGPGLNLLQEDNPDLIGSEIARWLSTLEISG
Protocol: FIG. 6A-6C show bidirectional manipulation of AMPAR and GABAAR neurotransmission. (FIG. 6A) Viral strategy (top panel). Intravitreal AAV7m8-DIO-HTPGPI-2A-dTomao achieves retinal ganglion cell (RGC) expression in PV::cre mice. Experimental overview (second panel from the top to bottom panel). Top: whole retina; synaptic current is evoked (stim) and recorded (voltage-clamp of dTomato+ RGC), with ionic and pharmaceutical conditions chosen to isolate the AMPAR or GABAAR. A 10 min baseline is followed by 15 min application of 300 nM Rx^DART.2+30 nM Alexa^647.1DART.2. […] (FIG. 6B) CMPDA.2^DART.2 (left). Electropositive spacer (PDB 3RNN). […] EPSC waveform before and after CMPDA.2^DART.2. AMPAR structural model (middle) (composite of PDB 5WEO, 3RNN, and 1FTL). Cylinder depicts cell membrane. CMPDA.2^DART.2 binds within an inter-clamshell interface (2 per receptor). YM90K.1^DART.2 binds the orthosteric glutamate binding site in the clamshell (4 per receptor). YM90K.1^DART.2 (right). […]
Next it was asked whether bidirectional modulation of the AMPAR and GABAAR could be achieved in the same cell type. A preparation was focused on in which electrophysiology is the primary readout, enabling resolution of the amplitude and millisecond time-constant of synaptic transmission. […] A whole-mount retina was later prepared and evoked synaptic currents were measured under conditions that isolate the AMPAR or GABAAR. […]

SMILES	positive modulation of the AMPAR [1]	AMPAR evoked EPSC integral (total charge transfer) boost, +HTP cells [2]	AMPAR evoked EPSC, ddHTP cells [2]	integrated EPSC charge transfer, +HTP RGCs [2]	AMPAR evoked EPSC, ddHTP cells ([2]; listed as CMPDA.2^DART.2)	time by which fluorescence largely cleared [3]	time to peak fluorescence intensity over cortex [3]	time for DART capture to reach steady state [4]	dye capture on +HTP cells [5]	dye capture on ddHTP or -HTP cells [5]
COc1cc(CCCCl)ccc1CCOCCNC(=O)c1ccc(CNC(=O)CCOCCOCCOCCOCCOCCOCCOCCOCCOCCOCCOCCOCCOCCOCCOCCOCCOCCOCCOCCOCCOCCOCCOCCOCCOCCOCCOCCOCCOCCOCCOCCOCCOCCOCCOCCOCCn2cc(COCCNCCCNC(=O)CC(CNS(=O)(=O)C(C)C)c3ccc(CCNS(=O)(=O)C(C)C)cc3)nn2)cc1 (centres unmarked) [CMPDA.2DART.2]	restored the ability of the reagent to bind and produce positive allosterically modulation of the AMPAR	3 fold	No impact	three-fold increase	not ^ddHTP cells	–	–	–	–	–
COc1cc(CCCCl)ccc1CCOCCNC(=O)c1ccc(CNC(=O)CCOCCOCCOCCOCCOCCOCCOCCOCCOCCOCCOCCOCCOCCOCCOCCOCCOCCOCCOCCOCCOCCOCCOCCOCCOCCOCCOCCOCCOCCOCCOCCOCCOCCOCCOCCOCCn2cc(COCCOCCOCCOCCOCCOCCNC(=O)CCCCCC3(C)\C(=C/C=C/C=C/C4=[N+](CCCS(=O)(=O)O)c5ccc(S(=O)(=O)[O-])cc5C4(C)C)N(CCCS(=O)(=O)O)c4ccc(S(=O)(=O)O)cc43)nn2)cc1 (centres unmarked) [Alexa647.1DART.2]	–	–	–	–	–	≤ 24 h	2 h	4 to 8 h	robust capture	no detectible capture
C#CCOCCOCCOCCOCCOCCOCCC(CNS(=O)(=O)C(C)C)c1ccc(CCNS(=O)(=O)C(C)C)cc1 (centres unmarked) [CMPDA.1alkyne, N-(2-{4-[23-(propane-2-sulfonamido)-4,7, 10, 13, 16, 19-hexaoxatricos-1-yn-22-yl]phenyl}ethyl)propane-2-sulfonamide]	retained its ability to positively modulate the AMPAR	–	–	–	–	–	–	–	–	–
